# Experimental data from patent US12215116B2, “Arginase inhibitors and methods of use” (Merck Sharp & Dohme LLC, priority 2018, dated 2025).
# Biological target: T1, Arginase (ARG1 enzyme) (Homo sapiens, UniProt P05089)
# T1 construct: made in house; host or cells: Escherichia coli
# T1 sequence (P05089 1-322): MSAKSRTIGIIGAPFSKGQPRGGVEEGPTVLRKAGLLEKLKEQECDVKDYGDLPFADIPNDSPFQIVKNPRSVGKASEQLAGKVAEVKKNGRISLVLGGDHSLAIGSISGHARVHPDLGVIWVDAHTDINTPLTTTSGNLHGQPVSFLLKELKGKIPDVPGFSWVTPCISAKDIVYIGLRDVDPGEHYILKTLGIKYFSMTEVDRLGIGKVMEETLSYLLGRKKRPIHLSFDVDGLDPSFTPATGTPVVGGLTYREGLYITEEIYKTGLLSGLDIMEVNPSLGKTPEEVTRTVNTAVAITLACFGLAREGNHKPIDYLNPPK
# Experiment: Arginase Thioornithine Generating Assay (TOGA)
# Type: biochemical
# Conditions: 1.88 nM arginase, thioarginine substrate, fluorescence readout
# Procedure: Arginase Thioornithine Generating Assay (TOGA)
# Compounds were serially diluted in ten 3-fold steps in DMSO starting from 10 mM DMSO stocks. Compound dilutions or DMSO alone were then dispensed from the dilution plate into a Greiner black 384-well assay plate (catalog #781086) using an Echo 555 acoustic liquid handler (Labcyte).
# Arginase protein was recombinantly expressed in Escherichia coli. Purified protein was then diluted in assay buffer (50 mM Tris pH 7.5, 50 mM NaCl, 1 mM manganese chloride, 0.05% bovine serum albumin to obtain a final Arginase concentration of 1.88 nM. Arginase solution (20 μL) or buffer alone (20 μL) were dispensed to wells of the assay plate using a BioRAPTR liquid dispenser (Beckman Coulter). Assay plates containing compound and ARG1 enzyme were incubated at room temperature for 30 minutes. Afterwards, 5 μL of 2.5 mM thioarginine (Cayman Chemicals) in assay buffer were added to each well of the assay plate using a BioRAPTR liquid dispenser. Plates were incubated at room temperature for 60 minutes and reactions were quenched by addition of 15 μL of […] 7-Diethylamine-3-(4-maleimidophenyl)-4-methylcoumarin (Sigma Chemical) in 70% ethanol. Plates were briefly shaken to mix and the fluorescence was measured in an Spectramax plate reader (Molecular Devices) with a 410 nm excitation wavelength and an 490 nm emission wavelength.
# Potencies were calculated by […] to the four parameter logistic IC50 equation.
row,IC50 [nM],SMILES
1,119,"CN(C)C[C@@]1(CCCB(O)O)CCN[C@@H]1C(=O)O [Example 86, (2S,3R)-3-(3-boronopropyl)-3-((dimethylamino)methyl)pyrrolidine-2-carboxylic acid]"
2,13,"O=C(N[C@H]1CN[C@H](C(=O)O)[C@@H]1CCCB(O)O)[C@@H]1CCCN1 [Example 49, (2S,3R,4R)-3-(3-boronopropyl)-4-((S)-pyrrolidine-2-carboxamido)pyrrolidine-2-carboxylic acid]"
3,8040,"O=C(O)C1NCC[C@@H]1CCCB(O)O (single isomer, unassigned) [Example 9B]"
4,20,"O=C(O)[C@H]1NCC(CO)[C@H]1CCCB(O)O (stereo partly drawn) [Example 91, (2S,3R)-3-(3-boronopropyl)-4-(hydroxymethyl)pyrrolidine-2-carboxylic acid]"
5,> 10000,"NC1CN[C@H](C(=O)O)C1CCCB(O)O (single isomer, unassigned) [Example 33A]"
6,1520,"O=C(O)C1CNCC1CCCB(O)O (single isomer, unassigned) [Example 21D, 4-[3-(dihydroxyboranyl)propyl]pyrrolidine-3-carboxylic acid]"
7,34.9,"CNC[C@@H]1C[C@@H](CCCB(O)O)[C@@H](C(=O)O)N1 [Example 62, (2S,3R,5S)-3-(3-boronopropyl)-5-((methylamino)methyl)pyrrolidine-2-carboxylic acid]"
8,1780,"NC[C@H]1C[C@H](CCCB(O)O)[C@H](C(=O)O)N1 [Example 60B, (2R,3S,5R)-5-(aminomethyl)-3-(3-boronopropyl)pyrrolidine-2-carboxylic acid]"
9,6.69,"NCCN[C@H]1CN[C@H](C(=O)O)[C@@H]1CCCB(O)O [Example 31, (2S,3R,4R)-4-((2-aminoethyl)amino)-3-(3-boronopropyl)pyrrolidine-2-carboxylic acid]"
10,2260,"C[C@@]1(C(=O)O)NCC[C@@H]1CCCB(O)O [Example 16B, (3S)-3-[3-(dihydroxyboranyl)propyl]-2-methyl-D-proline]"
11,128,"O=C(O)[C@H]1NC[C@H](NCC(F)F)[C@H]1CCCB(O)O [Example 27, (2S,3R,4R)-3-(3-boronopropyl)-4-((2,2-difluoroethyl)amino)pyrrolidine-2-carboxylic acid]"
12,0.778,"N[C@H](C(=O)N[C@H]1CN[C@H](C(=O)O)[C@@H]1CCCB(O)O)C1CCCC1 [Example 40, (2S,3R,4R)-4-((S)-2-amino-2-cyclopentylacetamido)-3-(3-boronopropyl)pyrrolidine-2-carboxylic acid]"
13,8,"NC[C@@]1(CCCB(O)O)CN[C@@H]1C(=O)O [Example 67, (2S,3S)-3-(aminomethyl)-3-(3-boronopropyl)azetidine-2-carboxylic acid]"
14,13.6,"C[C@H](N)C(=O)N[C@H]1CN[C@H](C(=O)O)[C@@H]1CCCB(O)O [Example 41, (2S,3R,4R)-4-((S)-2-aminopropanamido)-3-(3-boronopropyl)pyrrolidine-2-carboxylic acid]"
15,13.4,"N#C[C@@]1(CCCB(O)O)CCN[C@@H]1C(=O)O [Example 88, (2S,3S)-3-(3-boronopropyl)-3-cyanopyrrolidine-2-carboxylic acid]"
16,99000,"O=C(O)C1NCCNC1CCCB(O)O (stereo not shown) [Example 7, 3-[3-(dihydroxyboranyl)propyl]piperazine-2-carboxylic acid]"
17,13,"O=C(O)[C@H]1NC[C@@]1(CO)CCCB(O)O [Example 65, (2S,3S)-3-(3-boronopropyl)-3-(hydroxymethyl)azetidine-2-carboxylic acid]"
18,12900,"O=C(O)C1C(CCCB(O)O)CCN1CCN1CCCCC1 (stereo not shown) [Example 10, 3-(3-boronopropyl)-1-(2-(piperidin-1-yl)ethyl)pyrrolidine-2-carboxylic acid]"
19,7.18,"NC[C@@]1(CCCB(O)O)CCN[C@@H]1C(=O)O [Example 85, (2S,3R)-3-(aminomethyl)-3-(3-boronopropyl)pyrrolidine-2-carboxylic acid]"
20,396,"O=C(O)C1(CCN2CCCCC2)NCCCC1CCCB(O)O (stereo not shown) [Example 2, 3-[3-(dihydroxyboranyl)propyl]-2-[2-(piperidin-1-yl)ethyl]piperidinyl-2-carboxylic acid]"

row,IC50 [nM],SMILES
1,> 10000,"CN(C)C[C@H]1CN[C@H](C(=O)O)[C@]1(C)CCCB(O)O [Example 78, (2S,3R,4R)-3-(3-boronopropyl)-4-((dimethylamino)methyl)-3-methylpyrrolidine-2-carboxylic acid]"
2,2.09,"CC(C)[C@H](N)C(=O)N[C@H]1CN[C@H](C(=O)O)[C@@H]1CCCB(O)O [Example 37, (2S,3R,4R)-4-((S)-2-amino-3-methylbutanamido)-3-(3-boronopropyl)pyrrolidine-2-carboxylic acid]"
3,439,"CN(C)C[C@@H]1C[C@@H](CCCB(O)O)[C@@H](C(=O)O)N1 [Example 61, (2S,3R,5S)-3-(3-boronopropyl)-5-((dimethylamino)methyl)pyrrolidine-2-carboxylic acid]"
4,7,"CNC[C@@]1(CCCB(O)O)CCN[C@@H]1C(=O)O [Example 87, (2S,3R)-3-(3-boronopropyl)-3-((methylamino)methyl)pyrrolidine-2-carboxylic acid]"
5,> 10000,"O=C(O)C1NCCCC1OCCB(O)O (stereo not shown) [Example 3, 3-[2-(dihydroxyboranyl)ethoxy]piperidinyl-2-carboxylic acid]"
6,940,"NC1(C(=O)O)CNCC1(CO)CCCB(O)O (single isomer, unassigned) [Example 94B]"
7,18,"O=C(O)[C@H]1NCC[C@H]1CCCB(O)O (single isomer, unassigned) [Example 9A]"
8,7.71,"O=C(O)[C@H]1N[C@H](CO)C[C@H]1CCCB(O)O [Example 63, (2S,3R,5S)-3-(3-boronopropyl)-5-(hydroxymethyl)pyrrolidine-2-carboxylic acid]"
9,602,"O=C(O)C1CNCC1CCCB(O)O (single isomer, unassigned) [Example 21B, 4-[3-(dihydroxyboranyl)propyl]pyrrolidine-3-carboxylic acid]"
10,> 10000,"NC1CN[C@H](C(=O)O)C1CCCB(O)O (single isomer, unassigned) [Example 33B]"
11,3290,"CCN(CC)[C@H]1CN[C@H](C(=O)O)[C@@H]1CCCB(O)O [Example 28, (2S,3S,4R)-3-(3-boronopropyl)-4-(diethylamino)pyrrolidine-2-carboxylic acid]"
12,20.8,O=C(O)[C@@]1(CCN2CCC2)NCC[C@H]1CCCB(O)O [Example 56]
13,1450,"C[C@@]1(C(=O)O)NCC[C@H]1CCCB(O)O [Example 16C, (3R)-3-[3-(dihydroxyboranyl)propyl]-2-methyl-D-proline]"
14,2.98,"CN[C@H](C(=O)N[C@H]1CN[C@H](C(=O)O)[C@@H]1CCCB(O)O)C(C)C [Example 43, (2S,3R,4R)-3-(3-boronopropyl)-4-((S)-3-methyl-2-(methylamino)butanamido)pyrrolidine-2-carboxylic acid]"
15,343,"CC(C)(O)[C@@]1(CCCB(O)O)CN[C@@H]1C(=O)O [Example 68, (2S,3S)-3-(3-boronopropyl)-3-(2-hydroxypropan-2-yl)azetidine-2-carboxylic acid]"
16,66.3,CNC[C@H]1CN[C@H](C(=O)O)[C@]1(C)CCCB(O)O [Example 79]
17,29.5,"NC[C@@H]1C[C@@H](CCCB(O)O)[C@@H](C(=O)O)N1 [Example 60A, (2S,3R,5S)-5-(aminomethyl)-3-(3-boronopropyl)pyrrolidine-2-carboxylic acid]"
18,0.818,"CC(C)(C)[C@H](N)C(=O)N[C@H]1CN[C@H](C(=O)O)[C@@H]1CCCB(O)O [Example 38, (2S,3R,4R)-4-((S)-2-amino-3,3-dimethylbutanamido)-3-(3-boronopropyl)pyrrolidine-2-carboxylic acid]"
19,> 10000,CC1(C)N[C@H](C(=O)O)[C@](C)(CCCB(O)O)[C@@H]1O [Example 75]

row,SMILES,IC50 [nM]
1,"O=C(O)[C@H]1NC[C@@H]1CCCB(O)O [Example 8A, (2S,3S)-3-[3-(dihydroxyboranyl)propyl]azetidine-2-carboxylic acid]",340
2,"O=C(O)C1CC(CCB(O)O)CCN1 (stereo not shown) [Example 4, 4-[2-(dihydroxyboranyl)ethyl]piperidinyl-2-carboxylic acid]",19800
3,"O=C(O)C1NCCCC1CCCB(O)O (stereo not shown) [Example 1, 3-[3-(dihydroxyboranyl)propyl]piperidinyl-2-carboxylic acid]",660
4,"CO[C@H]1CN[C@H](C(=O)O)[C@@H]1CCCB(O)O [Example 36, (2S,3S,4R)-3-(3-boronopropyl)-4-methoxypyrrolidine-2-carboxylic acid]",46.1
